`COc1c(O)cc2c(c1O)[C@@H]1O[C@H](CO)[C@@H](O)[C@H](O)[C@H]1OC2=O` gave a solubility (mole fraction) (in DMSO, 298.15 K) of 0.0168, a solubility (mole fraction) (in DMSO, 303.15 K) of 0.0182 and a solubility (mole fraction) (in DMSO, 308.15 K) of 0.0198. The solubility (mole fraction) (in DMSO, 313.15 K) was 0.0212, the solubility (mole fraction) (in DMSO, 318.15 K) was 0.0229 and the solubility (mole fraction) (in water, 298.15 K) was 7.5e-05. The solubility (mole fraction) (in water, 303.15 K) was 9.88e-05, the solubility (mole fraction) (in water, 308.15 K) was 0.000123 and the solubility (mole fraction) (in water, 313.15 K) was 0.000151. The solubility (mole fraction) (in water, 318.15 K) was 0.000185.

Reference: BigSolDB 2.1
